Tests used:
[1] = target: T1, PPARgamma (h) (Homo sapiens, UniProt P37231); test: Human recombinant (E. coli) PPARgamma (h) binding assay; details: @ 30 μM
T1 construct: host or cells: E. coli
T1 sequence (P37231 1-505): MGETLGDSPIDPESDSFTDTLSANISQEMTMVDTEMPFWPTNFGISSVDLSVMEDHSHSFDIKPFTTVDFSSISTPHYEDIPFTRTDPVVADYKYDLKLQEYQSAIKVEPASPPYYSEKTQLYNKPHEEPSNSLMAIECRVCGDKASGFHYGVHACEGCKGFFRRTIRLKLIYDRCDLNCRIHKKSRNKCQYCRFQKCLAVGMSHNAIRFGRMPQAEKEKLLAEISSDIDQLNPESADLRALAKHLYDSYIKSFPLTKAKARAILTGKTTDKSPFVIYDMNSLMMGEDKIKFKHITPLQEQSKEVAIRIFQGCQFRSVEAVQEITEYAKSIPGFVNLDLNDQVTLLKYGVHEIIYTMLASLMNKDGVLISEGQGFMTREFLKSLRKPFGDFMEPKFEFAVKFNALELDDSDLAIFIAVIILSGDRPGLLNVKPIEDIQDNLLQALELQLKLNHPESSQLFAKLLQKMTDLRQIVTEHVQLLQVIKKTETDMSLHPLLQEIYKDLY
Experimental: The results are expressed as a percent of control specific binding ((measured specific binding/control specific binding)×100) obtained in the presence of the test compounds. The IC50 values (concentration causing a half-maximal inhibition of control specific binding) and Hill coefficients (nH) were determined by non-linear regression analysis of the competition curves generated with mean replicate values using Hill equation curve fitting (Y=D+[(A D)/(1+(C/C50)nH)], where Y=specific binding, D=minimum specific binding, A=maximum specific binding, C=compound concentration, C50=IC50, and nH=slope factor). This analysis was performed using a software developed at Cerep (Hill software) and validated by comparison with data generated by the commercial software SigmaPlot® 4.0 for Windows® (© 1997 by SPSS Inc.). The inhibition constants (Ki) were calculated using the Cheng Prusoff equation (Ki=IC50/(1+(L/KD)), where L=concentration of radioligand in the assay, and KD=affinity of the radioligand for the receptor).

[2] = tested on: 1.5 μM U-46619-induced platelet aggregation (platelet rich plasma); test: TP receptor platelet aggregation - rabbit; format: cell-based, New Zealand Rabbit; details: Oryctolagus cuniculus, @ 0.1 mM (printed in the 30 μM column)
Text: TP Receptor Platelet Aggregation—Rabbit:
Thrombosis Research 33:277-288

[3] = tested on: mice (FeCl3 induced femoral artery thrombosis); test: FeCl3 arterial thrombosis mouse model (occlusion time, blood flow); format: in vivo
Experimental: The solutions were diluted 3.3-fold in saline and 100 μl/25 g was injected.
During the experiments, a soluble potassium salt of the drug was provided, diluted in saline. Of this formulation, 100 μl/25 g was injected i.v. in the tail vein (dose of 100 mg/kg).
Aspirin is given the same way at a dose of 200 mg/kg. Clopidogrel is administered by oral gavage at a dose of 20 mg/kg at 6-7 hours prior to the experiment. The solutions were coded (except for clopidogrel) and the operator was blinded to the code. The animals assigned to each group were matched for body weight. All mice used were 8-10 weeks old males and were in a 100% Swiss genetic background.
(§1) The flow in each image is expressed as a percentage of that at the contralateral side, and data are averaged for all 120 images to determine total flow. The same analysis is performed for 10 min intervals (which gives essentially the same information as the area under the curve). […] Flow before treatment is recorded as 100%, and that in occluded arteries as 0%. At the end of the experiment, blood is collected on 0.01M citrate by heart puncture for determination of blood cell counts. Plasma is prepared by centrifugation and stored at −20° C. for determination of drug levels.
Statistical analysis for differences between two groups is performed by non-parametric Student t-test. Occlusion times >30 min were considered equal to 30 min for statistical analysis. It should be noted that this approach may result in a statistical bias, the more so because the number of experiments is not the same in the different groups. Significance is set at p<0.05.

[4] = Glucose lowering effect in KKAy mouse model; format: in vivo; details: male, mouse, serum; KKA^y mice, 53 mg/kg BID oral gavage 14 days, 4 hours after the last administration, average ± S.E.M.; read-out: Serum level of the compound
Experimental: (§2) 52 male KKA^y mice were obtained commercially (e.g., from Clea Japan) at an age of 6 weeks and put on a high fat diet upon arrival. Individual mice were housed in IVC Type II cages during both the acclimatization and the experimental phase. Both food (high fat diet) and water were supplied ad libitum.
(§3) Mice were randomized into treatment groups according to their 4-h fasting blood glucose.
(§4) 4 hours after the last administration, non-fasting conditions.
(§5) Blood was collected into heparin containing glass capillaries which were subsequently centrifuged in a “Haematokrit 24” centrifuge (Hettich) at 15′200×g for 10 min at room temperature to obtain the hematocrit value.
(§6) The following serum parameters were determined on a COBAS INTEGRA 800 auto analyzer (Roche Diagnostics, Switzerland) using the reagents and protocols provided by the supplier.
(§7) All measurements were made on Day 14 of administration, except for the food intake and body weight measurements that were made on Day 12.

[5] = tested on: KKA^y mice; test: Glucose lowering effect in KKAy mouse model; format: in vivo
Experimental: as §2, §3, §4, §5, §6, §7

[6] = Blood cell analysis at end of thrombosis experiment; format: in vivo, mouse
Experimental: as §1
Table VI summarizes the results of blood cell analysis performed on a sample taken at the end of the observation period. (Z)-6-((2S,4S,5R)-2-(2-chlorophenyl)-4-(2-hydroxyphenyl)-1,3-dioxan-5-yl)hex-4-enoic is referred to in Table VI as EV.

[7] = 53 mg/kg BID oral gavage 14 days, Day 14, average ± S.E.M.
[8] = 30 mg/kg vehicle i.v., n = 4, mean ± SEM
[9] = 100 mg/kg vehicle i.v., n = 9, mean ± SEM

O=C(O)CC/C=C\C[C@H]1COC(c2ccccc2Cl)O[C@H]1c1ccccc1O (single isomer, unassigned) [Compound A]
PPARgamma binding @ 30 μM [1]: no binding | inhibition at 100 µM [2]: 15%

O=C(O)CC/C=C\C[C@@H]1CO[C@H](c2ccccc2Cl)O[C@@H]1c1ccccc1O (single isomer, unassigned) [Compound B]
occlusion time ([3]; 30 mg/kg in vehicle (DMSO/PEG 400) i.v.): slightly prolongs the occlusion time as compared to aspirin (p=0.024), but has no effect as compared to vehicle | total blood flow ([3]; 30 mg/kg in vehicle i.v.): no effect | blood flow, time window 0-10 min ([3]; 100 mg/kg in vehicle i.v.): significantly higher flow as compared to aspirin (p=0.0002) but not as compared to vehicle only (p=0.11) | total blood flow ([3]; 100 mg/kg in vehicle i.v.): improved total blood flow as compared to aspirin (p=0.055), but not as compared to vehicle (p=0.45) | concentration at 4 h [4]: 161 ± 60 ng/mL | ALP [5, 7]: 21.5 ± 1.6 dU/L | ALT [5, 7]: 5.1 ± 0.6 dU/L | AST [5, 7]: 7.7 ± 1.0 dU/L | Hematocrit [5, 7]: 40.1 ± 1.6% | Serum Glucose [5, 7]: decreased | FFA ([5]; 53 mg/kg BID oral gavage 14 days, Day 14, average ± S.E.M., listed as (Z)-6-(2S,4S,5R)-2-(2-chlorophenyl)-4-(2-hydroxyphenyl)-1,3-dioxan-5-yl(hex-4-e, 53 mg/kg)): slightly decreased | Food Intake ([5]; 53 mg/kg BID oral gavage, Day 12, average ± S.E.M.): 5.0 ± 0.6 g/day | Hematocrit [6, 8]: 62 ± 7.3% | Hemoglobin [6, 8]: 15 ± 0.28 g/dL | Lymphocytes [6, 8]: 42 ± 4.7% | Neutrophils [6, 8]: 56 ± 5.3% | Platelets [6, 8]: 1020 ± 89 ×10^3/μl | Red blood cells [6, 8]: 9.1 ± 0.26 ×10^6/μl | White blood cells [6, 8]: 0.95 ± 0.17 ×10^3/μl | Hematocrit [6, 9]: 70 ± 3.5% | Hemoglobin [6, 9]: 15 ± 0.30 g/dL | Lymphocytes [6, 9]: 58 ± 11% | Neutrophils [6, 9]: 34 ± 12% | Platelets [6, 9]: 895 ± 46 ×10^3/μl | Red blood cells [6, 9]: 9.2 ± 0.17 ×10^6/μl | White blood cells [6, 9]: 1.5 ± 0.46 ×10^3/μl
